Test results as given in patent US20240108740A1, “THERAPEUTIC COMPOSITIONS INCLUDING SPN10 AND USES THEREOF” (Stealth BioTherapeutics Inc., priority 2022, published 2024).
Residues, ends and D or L forms follow the SMILES beside them.

Tests used:
CD36 = experiment: Example 4: CD36 mRNA in post-ischemic brain (real time PCR); type: in vivo, mouse; conditions: treatment at 0 and 6 hours after 30 minute ischemia
Protocol: Wild-type mice will be given saline vehicle (Veh, i.p., n=6), peptide conjugates (5 mg/kg, i.p., n=6), aromatic-cationic peptides (e.g., an equivalent molar dose of aromatic-cationic peptide based on the concentration of the aromatic-cationic peptide administered in the peptide conjugate treatment group), SPN10(s) (e.g., an equivalent molar dose of SPN10 based on the concentration of SPN10 administered in the peptide conjugate treatment group), or SPN10(s) in combination with aromatic-cationic peptides (e.g., an equivalent molar dose of SPN10 based on the concentration of SPN10 administered in the peptide conjugate treatment group and an equivalent molar dose of aromatic-cationic peptide based on the concentration of aromatic-cationic peptide administered in the peptide conjugate treatment group) at 0 and 6 hours after a 30 minute period of ischemia. Levels of CD36 mRNA in post-ischemic brain will be determined using real time PCR.

[1] = system: Isolated guinea pig hearts; experiment: Example 15: organ preservation in cardioplegic solution; conditions: added to cardioplegic solution; 90 minutes ischemia, 60 minutes reperfusion
Protocol: Isolated guinea pig hearts will be perfused in a retrograde fashion with an oxygenated Krebs-Henseleit solution at 34° C. After 30 minutes of stabilization, the hearts will be perfused with a cardioplegic solution (CPS; St. Thomas) alone or in the presence of peptide conjugates (100 nM); aromatic-cationic peptides (an equivalent molar dose of aromatic-cationic peptide based on the concentration of the aromatic-cationic peptide administered in the peptide conjugate treatment group); SPN10(s) (an equivalent molar dose of SPN10 based on the concentration of SPN10 administered in the peptide conjugate treatment group); or SPN10(s) in combination with aromatic-cationic peptides (e.g., an equivalent molar dose of SPN10 based on the concentration of SPN10 administered in the peptide conjugate treatment group and an equivalent molar dose of aromatic-cationic peptide based on the concentration of aromatic-cationic peptide administered in the peptide conjugate treatment group) for 3 minutes. Global ischemia will then be induced by complete interruption of coronary flow and maintained for 90 minutes. Reperfusion will be performed for 60 minutes with oxygenated Krebs-Henseleit solution. Contractile force, heart rate, and coronary flow will be monitored continuously throughout the procedure.

[2] = system: acute myocardial infarction; experiment: Infarct size at revascularization, given with cyclosporine; type: in vivo, human; conditions: along with cyclosporine at the time of reperfusion
Protocol: Study group. Men and women, 18 years of age or older, who present within 6 hours after the onset of chest pain, who have ST-segment elevation of more than 0.1 mV in two contiguous leads, and for whom the clinical decision is made to treat with percutaneous coronary intervention (PCI) will be eligible for enrollment. Patients are eligible for the study whether they are undergoing primary PCI or rescue PCI. Occlusion of the affected coronary artery (Thrombolysis in Myocardial Infarction (TIMI) flow grade 0) at the time of admission is also a criterion for inclusion. Angiography and Revascularization. […] Either separately or simultaneously, cyclosporine (final concentration, […] will be injected through the catheter. Normal saline (0.9% NaCl) will be used as a control. The patients in the control group receive an equivalent volume of normal saline. Infarct Size. The primary end point will be the size of the infarct as assessed by measurements of cardiac biomarkers. Blood samples are obtained at admission and repeatedly over the next 3 days. The area under the curve (AUC) (expressed in arbitrary units) for creatine kinase and troponin I release (Beckman kit) will be measured in each patient by computerized planimetry. […] The images are analyzed in short axis slices covering the entire left ventricle. […]

N=C(N)NCCC[C@H](NC(=O)[C@@H](N)Cc1c[nH]c2ccccc12)C(=O)N[C@@H](Cc1c[nH]c2ccccc12)C(=O)N[C@@H](CCCCN)C(N)=O [SPN10, H-L-Trp-L-Arg-L-Trp-L-Lys-NH2] (H-WRWK-NH2)
CD36 mRNA in the ipsilateral brain (CD36): significantly reduced
contractile function after prolonged ischemia [1]: significantly enhance contractile function
infarct size versus placebo [2]: smaller infarct
